Data as given in patent publication US9669003B2, “Use of flavone and flavanone derivatives in preparation of sedative and hypnotic drugs” (priority 2012, dated 2017).
Marks after values point to notes of the source that are not given here.

The compounds below were run on Kunming mice (assay: Influence on autonomic activity of normal mice (ZIL-2 mice autonomic activity meter, counts within 10 min)). Settings: intragastric, 25 mg/kg, 1 h after administration, x ± s, n = 10.
Assay type: in vivo
Summary of the method: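 Activity counts during a 10-min window were taken at 1, 2 and 24 h after dosing in groups of 10 mixed-sex Kunming mice. Compounds were given in 0.5% CMC-Na at 25, 50 or 100 mg/kg. Statistics used Levene's homogeneity test, ANOVA and Dunnett's multiple comparisons.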

Row | Compound | Times of activities in 1 h after drug administration/10 min
1 | CCCc1ccc(C2CC(=O)c3c(O)cc([N+](=O)[O-])cc3O2)cc1OC (stereo not drawn) [Example 61] | 317.3 ± 50.1 /10 min
2 | COc1cc(C2Oc3c(cc(OC)c(OC)c3OC)C(=O)C2OC)c(O)c(OC)c1OC (stereo not drawn) [Example 69, 6′-hydroxyl-3,6,7,8,3′,4′,5′-hepta methoxyl-flavanone] | 322.3 ± 51.3 /10 min

Same assay, conditions: intragastric, 25 mg/kg, 2 h after administration, x ± s, n = 10

Row | Compound | Times of activities in 2 h after drug administration/10 min
3 | CCCc1ccc(C2CC(=O)c3c(O)cc([N+](=O)[O-])cc3O2)cc1OC (stereo not drawn) [Example 61] | 289.4 ± 40.2 /10 min
4 | COc1cc(C2Oc3c(cc(OC)c(OC)c3OC)C(=O)C2OC)c(O)c(OC)c1OC (stereo not drawn) [Example 69, 6′-hydroxyl-3,6,7,8,3′,4′,5′-hepta methoxyl-flavanone] | 278.3 ± 40.3 /10 min

Same assay, conditions: intragastric, 25 mg/kg, 24 h after administration, x ± s, n = 10

Row | Compound | Times of activities in 24 h after drug administration/10 min
5 | CCCc1ccc(C2CC(=O)c3c(O)cc([N+](=O)[O-])cc3O2)cc1OC (stereo not drawn) [Example 61] | 301.9 ± 77.5 /10 min
6 | COc1cc(C2Oc3c(cc(OC)c(OC)c3OC)C(=O)C2OC)c(O)c(OC)c1OC (stereo not drawn) [Example 69, 6′-hydroxyl-3,6,7,8,3′,4′,5′-hepta methoxyl-flavanone] | 299.1 ± 80.7 /10 min

Same assay, conditions: intragastric, 50 mg/kg, 1 h after administration, x ± s, n = 10

Row | Compound | Times of activities in 1 h after drug administration/10 min
7 | CCCc1ccc(C2CC(=O)c3c(O)cc([N+](=O)[O-])cc3O2)cc1OC (stereo not drawn) [Example 61] | 295.1 ± 41.9 /10 min
8 | COc1cc(C2Oc3c(cc(OC)c(OC)c3OC)C(=O)C2OC)c(O)c(OC)c1OC (stereo not drawn) [Example 69, 6′-hydroxyl-3,6,7,8,3′,4′,5′-hepta methoxyl-flavanone] | 298.0 ± 41.5 /10 min

Same assay, conditions: intragastric, 50 mg/kg, 2 h after administration, x ± s, n = 10

Row | Compound | Times of activities in 2 h after drug administration/10 min
9 | CCCc1ccc(C2CC(=O)c3c(O)cc([N+](=O)[O-])cc3O2)cc1OC (stereo not drawn) [Example 61] | 250.7 ± 42.8 /10 min
10 | COc1cc(C2Oc3c(cc(OC)c(OC)c3OC)C(=O)C2OC)c(O)c(OC)c1OC (stereo not drawn) [Example 69, 6′-hydroxyl-3,6,7,8,3′,4′,5′-hepta methoxyl-flavanone] | 251.7 ± 39.4 /10 min

Same assay, conditions: intragastric, 50 mg/kg, 24 h after administration, x ± s, n = 10

Row | Compound | Times of activities in 24 h after drug administration/10 min
11 | CCCc1ccc(C2CC(=O)c3c(O)cc([N+](=O)[O-])cc3O2)cc1OC (stereo not drawn) [Example 61] | 300.2 ± 91.3 /10 min
12 | COc1cc(C2Oc3c(cc(OC)c(OC)c3OC)C(=O)C2OC)c(O)c(OC)c1OC (stereo not drawn) [Example 69, 6′-hydroxyl-3,6,7,8,3′,4′,5′-hepta methoxyl-flavanone] | 309.1 ± 91.0 /10 min

Same assay, conditions: intragastric, 100 mg/kg, 1 h after administration, x ± s, n = 10

Row | Compound | Times of activities in 1 h after drug administration/10 min
13 | CCCc1ccc(C2CC(=O)c3c(O)cc([N+](=O)[O-])cc3O2)cc1OC (stereo not drawn) [Example 61] | 287.1 ± 45.9 /10 min
14 | COc1cc(C2Oc3c(cc(OC)c(OC)c3OC)C(=O)C2OC)c(O)c(OC)c1OC (stereo not drawn) [Example 69, 6′-hydroxyl-3,6,7,8,3′,4′,5′-hepta methoxyl-flavanone] | 289.3 ± 50.7 /10 min

Same assay, conditions: intragastric, 100 mg/kg, 2 h after administration, x ± s, n = 10

Row | Compound | Times of activities in 2 h after drug administration/10 min
15 | CCCc1ccc(C2CC(=O)c3c(O)cc([N+](=O)[O-])cc3O2)cc1OC (stereo not drawn) [Example 61] | 221.5 ± 45.8 /10 min
16 | COc1cc(C2Oc3c(cc(OC)c(OC)c3OC)C(=O)C2OC)c(O)c(OC)c1OC (stereo not drawn) [Example 69, 6′-hydroxyl-3,6,7,8,3′,4′,5′-hepta methoxyl-flavanone] | 235.8 ± 47.4 /10 min

Same assay, conditions: intragastric, 100 mg/kg, 24 h after administration, x ± s, n = 10

Row | Compound | Times of activities in 24 h after drug administration/10 min
17 | CCCc1ccc(C2CC(=O)c3c(O)cc([N+](=O)[O-])cc3O2)cc1OC (stereo not drawn) [Example 61] | 317.9 ± 80.3 /10 min
18 | COc1cc(C2Oc3c(cc(OC)c(OC)c3OC)C(=O)C2OC)c(O)c(OC)c1OC (stereo not drawn) [Example 69, 6′-hydroxyl-3,6,7,8,3′,4′,5′-hepta methoxyl-flavanone] | 320.4 ± 80.4 /10 min

The compounds below were run on Kunming mice (assay: Influence on hypnosis effect with pentobarbital sodium doses at the threshold (50 mg/kg i.p.)). Settings: 25 mg/kg intragastric single dose, pentobarbital sodium 50 mg/kg i.p. 60 min later, x ± s, n = 10.
Assay type: in vivo
Summary of the method: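 Pentobarbital sodium (0.3%, 50 mg/kg i.p.) injected 60 min after a single intragastric dose (25, 50, 100 mg/kg, 0.5% CMC-Na vehicle) in Kunming mice, 10 per group, sexes balanced. Onset and length of sleep (righting reflex lost over 1 min) analysed by ANOVA; sleeping incidence by χ2 test.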

Row | Compound | duration of sleep [min] | time to sleep [min]
19 | CCCc1ccc(C2CC(=O)c3c(O)cc([N+](=O)[O-])cc3O2)cc1OC (stereo not drawn) [Example 61] | 38.44 ± 15.12 | 4.42 ± 1.43
20 | COc1cc(C2Oc3c(cc(OC)c(OC)c3OC)C(=O)C2OC)c(O)c(OC)c1OC (stereo not drawn) [Example 69, 6′-hydroxyl-3,6,7,8,3′,4′,5′-hepta methoxyl-flavanone] | 31.77 ± 22.78 | 4.98 ± 1.88

Same assay, conditions: 50 mg/kg intragastric single dose, pentobarbital sodium 50 mg/kg i.p. 60 min later, x ± s, n = 10

Row | Compound | duration of sleep [min] | time to sleep [min]
21 | CCCc1ccc(C2CC(=O)c3c(O)cc([N+](=O)[O-])cc3O2)cc1OC (stereo not drawn) [Example 61] | 58.53 ± 27.42 | 3.92 ± 1.31
22 | COc1cc(C2Oc3c(cc(OC)c(OC)c3OC)C(=O)C2OC)c(O)c(OC)c1OC (stereo not drawn) [Example 69, 6′-hydroxyl-3,6,7,8,3′,4′,5′-hepta methoxyl-flavanone] | 57.73 ± 18.49 | 4.27 ± 1.62

Same assay, conditions: 100 mg/kg intragastric single dose, pentobarbital sodium 50 mg/kg i.p. 60 min later, x ± s, n = 10

Row | Compound | duration of sleep [min] | time to sleep [min]
23 | CCCc1ccc(C2CC(=O)c3c(O)cc([N+](=O)[O-])cc3O2)cc1OC (stereo not drawn) [Example 61] | 58.47 ± 24.40 | 3.79 ± 1.44
24 | COc1cc(C2Oc3c(cc(OC)c(OC)c3OC)C(=O)C2OC)c(O)c(OC)c1OC (stereo not drawn) [Example 69, 6′-hydroxyl-3,6,7,8,3′,4′,5′-hepta methoxyl-flavanone] | 64.09 ± 31.23 | 3.87 ± 1.78

The compounds below were run on Kunming mice (assay: Influence on hypnosis effect with pentobarbital sodium doses below the threshold (25 mg/kg i.p.)). Settings: test drug 25 mg/kg intragastric single dose, pentobarbital sodium 25 mg/kg i.p. 60 min later, sleep observed in 30 min, n = 10.
Assay type: in vivo
Summary of the method: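 Percentage of mice sleeping within 30 min after subthreshold pentobarbital sodium (25 mg/kg i.p.), defined by loss of righting reflex over 1 min, analysed by χ2. Compound in 0.5% CMC-Na given intragastrically at 25/50/100 mg/kg 60 min before; groups of 10 Kunming mice, both sexes.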

Row | Compound | Number of sleeping animals | rate of sleeping (%)
25 | CCCc1ccc(C2CC(=O)c3c(O)cc([N+](=O)[O-])cc3O2)cc1OC (stereo not drawn) [Example 61] | 5 | 50** %
26 | COc1cc(C2Oc3c(cc(OC)c(OC)c3OC)C(=O)C2OC)c(O)c(OC)c1OC (stereo not drawn) [Example 69, 6′-hydroxyl-3,6,7,8,3′,4′,5′-hepta methoxyl-flavanone] | 3 | 30%

Same assay, conditions: test drug 50 mg/kg intragastric single dose, pentobarbital sodium 25 mg/kg i.p. 60 min later, sleep observed in 30 min, n = 10

Row | Compound | Number of sleeping animals | rate of sleeping (%)
27 | CCCc1ccc(C2CC(=O)c3c(O)cc([N+](=O)[O-])cc3O2)cc1OC (stereo not drawn) [Example 61] | 6 | 60** %
28 | COc1cc(C2Oc3c(cc(OC)c(OC)c3OC)C(=O)C2OC)c(O)c(OC)c1OC (stereo not drawn) [Example 69, 6′-hydroxyl-3,6,7,8,3′,4′,5′-hepta methoxyl-flavanone] | 5 | 50* %

Same assay, conditions: test drug 100 mg/kg intragastric single dose, pentobarbital sodium 25 mg/kg i.p. 60 min later, sleep observed in 30 min, n = 10

Row | Compound | Number of sleeping animals | rate of sleeping (%)
29 | CCCc1ccc(C2CC(=O)c3c(O)cc([N+](=O)[O-])cc3O2)cc1OC (stereo not drawn) [Example 61] | 8 | 80*** %
30 | COc1cc(C2Oc3c(cc(OC)c(OC)c3OC)C(=O)C2OC)c(O)c(OC)c1OC (stereo not drawn) [Example 69, 6′-hydroxyl-3,6,7,8,3′,4′,5′-hepta methoxyl-flavanone] | 7 | 70** %
